Experimental data: patent publication US11103525B2, “Idoxuridine and its analogs as neuroprotectans for the treatment of parkinsonism” (priority 2017, dated 2021)

What was measured:
N2a-WT cells = test: Cytoprotection against 6-OHDA (MTT assay), N2a-WT cells; format: cell-based, mouse; details: 2 μM pretreatment 72 h, then 6-OHDA 24 h
Protocol: FIG. 6. GPR37-associated cytoprotection of Idoxuridine against parkinsonian drug 6-OHDA. N2a-WT and N2a-GPR37-tGFP cells were grown in differentiating medium containing either 2 μM idoxuridine, 0.1% DMSO (negative control) or 1 mM dbcAMP (positive control). 72 h later cells were treated with either 6-OHDA (10, 20, 35 100 μM) or vehicle control and incubated for 24 h. Cell viability was quantified by MTT assay. Data are pooled from three independent experiments with 6 technical replicates for each condition and are expressed as means+/−SD. To assess the […] effect of idoxuridine against 6-OHDA-toxicity data were analyzed using a 2-way ANOVA followed by a Bonferroni correction test. Each cell line was statistically analyzed separately, with pretreatment and 6-OHDA treatment as variables; or GPR37 expression and 6-OHDA-treatment as variables. For simplicity, only idoxuridine related significance is indicated; significances between positive and negative controls are not shown; ****p<0.0001, ***p<0.001, **p<0.01. Test compound (5 μL) of desired concentration (Idoxuridine, final concentration 2 μM); positive control (dibutyryl-cAMP, final concentration 1 mM); and negative control (DMSO, final concentration 0.1%) were plated in a 96-well plate. […] Absorbance was measured at 570 nm (formazan product) and at 650 nm (reference) using a Tecan Spark® 10M microplate reader. […]

primary cortical neurons = test: Cytoprotection against NMDA excitotoxicity (propidium iodide staining); format: cell-based, rat; details: 25 μM pretreatment 72 h or 48 h, NMDA 200 μM 30 min
Protocol: FIG. 7: Cytoprotection of Idoxuridine against excitotoxicity of NMDA. Mature primary neurons were pretreated with Idoxuridine (25 μM) or DMSO (ctrl cells) for 72 h or 48 h and subsequently exposed to NMDA (200 μM) for 30 min. Cell viability was assessed by propidium iodide (PI) staining. Both control and treated cells were incubated for 30 min with 6 μM PI which stains nuclei of dead cells. After extensive washing with Tyrode's buffer, samples were fixed and stained with DAPI to visualize all cell nuclei. PI positive cells were counted at several regions on coverslips and expressed as percentage of total cells visualized with DAPI stain. […] Data are expressed as means+/−SD and analyzed by one-way ANOVA with Dunnett's posthoc test. *p<0.001
Primary cortical neurons: Primary cortical neurons were prepared from E18 rat embryos. Cortices were isolated, cleared from meninges and dissociated after incubation in HBSS (Ca^2+ and Mg^2+-free) with 0.25% trypsin for 20 min at 37° C. […]
Mature primary neurons were pretreated with Idoxuridine (25 μM) or DMSO (ctrl cells) for 72 h or 48 h and subsequently exposed to NMDA (200 μM) for 30 min. Cell viability was assessed by propidium iodide (PI) staining. […] PI positive cells were counted at several regions on coverslips and expressed as percentage of total cells visualized with DAPI stain. […]

[1] = test system: GPR37-tGFP overexpressing cells; test: Cytoprotection against MG132, GPR37-tGFP overexpressing cells; format: cell-based, mouse
Protocol: (§1) FIG. 8: Cytoprotection of Idoxuridine against MG132. MG132-induced proteasomal inhibition reduced cell viability. […] Data represented as mean+SD. Analysis performed via one-way ANOVA with Neuman-Keuls post-test for both Figures. *** indicates p<0.001. 2 mM 4-PBA used as a positive unspecific control. MG132 is a potent 26S proteasome inhibitor which increases protein accumulation, ROS leakage, induces cell cycle arrest and apoptosis.

wildtype cells = test: Cytoprotection against MG132, wildtype cells; format: cell-based, mouse
Protocol: as §1

[2] = test system: GPR37-tGFP overexpressing cells; test: Cytoprotection against Eeyarestatin (EeI), GPR37-tGFP overexpressing cells; format: cell-based, mouse
Protocol: FIG. 9: Cytoprotection of Idoxuridine against Eel. Eeyarestatin (Eel) is a potent inhibitor of endoplasmic reticulum associated protein degradation (ERAD) pathway, specifically targeting p97. Eel-mediated reduction of cell viability is counteracted by idoxuridine in both GPR37-tGFP overexpressing cells (A) and WT (B) cells. Data represented as mean+SD. Analysis performed via one-way ANOVA with Neuman-Keuls post-test for both Figures. *** indicates p<0.001.
Eeyarestatin (EeI) is a potent inhibitor of endoplasmic reticulum associated protein degradation (ERAD) pathway, specifically targeting p97.

WT cells = test: Cytoprotection against H2O2, WT cells; format: cell-based, mouse; details: in-well H2O2 0.00025%
Source text: FIG. 10: Cytoprotection of Idoxuridine against […]. H2O2 reduces cell viability by increasing oxidative stress. This effect was counteracted by idoxuridine in GPR37-tGFP overexpressing cells (A) and WT (B) cells. […] In-well H2O2 concentration used was 0.00025%. […]

Compound: O=c1[nH]c(=O)n([C@H]2C[C@H](O)[C@@H](CO)O2)cc1I [Idoxuridine, 2′-deoxy-5-iodouridine]
- cytoprotective effect against 6-OHDA (cell viability, MTT) (N2a-WT cells): protective
- effect on excitotoxicity induced by NMDA (PI positive cells) (primary cortical neurons): significantly counteracted
- effect on MG132-induced reduction of cell viability [1]: potently counteracted
- effect on MG132-induced reduction of cell viability (wildtype cells): some neuroprotection
- effect on EeI-mediated reduction of cell viability [2]: counteracted
- effect on H2O2-induced reduction of cell viability (WT cells): counteracted
